Experimental data published in patent US20060234919A1, “Use” (priority 2001, published 2006).
Read-outs that look alike come from different tables or passages of the source.

Assays:
[1] = test system: carrageenan induced hyperalgesia; experiment: carrageenan induced hyperalgesia, Randall Selitto Test; assay type: in vivo, rat; conditions: 1000 μg/kg s.c.; 1 hour and 6 hours after the injection, compared to controls; p<0.05
Method: Nociceptive thresholds were measured in the rats given oxytocin 1000 μg/kg s.c. and their controls. This was done by determining the response to mechanical stimulation using the Randall Selitto Test (Ugo Basile, type 7200, Italy). The mechanical stimulus was applied to the dorsal surface of the hindpaw by a wedged-shape pusher at a loading rate of 48 g/s and the pressure required to initiate the struggle response was measured. All rats were trained on three consecutive days before testing.

lipase = experiment: caerulein-induced pancreatitis, lipase activity in pancreatic tissue; assay type: in vivo, rat; conditions: 1 mg/ml s.c.; caerulein alone 4.87±0.72, control 0.24±0.26
Method: Caerulein-induced pancreatitis: Female Sprague-Dawley rats (200-250 g) were anaesthetized with pentobarbitone sodium and phenobarbitone sodium (each 40 mg/kg, i.p.). The cholecystokinin analogue caerulein (8 nmol/kg in 2 h) was infused via one jugular vein for exocrine hyperstimulation and induction of acute edematous pancreatitis (Lampel M, Kern H F. Acute interstitial pancreatitis in the rat in-duced by excessive doses of a pancreatic secretagogue. Virchows Arch (Pathol Anat) 1997; 373: 97-117), while control animals were infused with a corresponding volume (4 ml/kg/h) of phosphate-buffered saline. Pre-treatment with the kininase II inhibitor captopril ([…], i. p.) was given 30 min prior to the infusion of caerulein. At the end of the experiment, the animals were sacrificed with an overdose of pentobarbital sodium. The pancreatic tissue was dried for 16 h in a vacuum centrifuge and the edema was quantified as fluid wt. per dry wt. of the tissue. For the determination of lipase activity in serum, the blood was collected following decapitation in separate groups of rats. The pancreas of these animals was excised an placed immediately into 2 ml of a 154 mmol/l solution of NaCl. After centrifugation at 2×10^5 m/s^2 for 25 min the supernatant was stored at −80° C. All samples were assayed for lipase activity (lipase test Boehringer Mannheim, Germany).

[2] = test system: collagenase-induced cutaneous inflammation; experiment: collagenase-induced cutaneous plasma protein extravasation; assay type: in vivo, guinea-pig
Method: One hour after anaesthesia of guinea-pigs with urethane (1.6 g/kg, i.p.), Evans blue (20 mg/kg) was injected into a jugular vein. Collagenase ([…]) or its solvent ([…] 154 mmol/l NaCl solution) was injected s. c. into the dorsal skin. All doses of collagenase as well as the solvent were injected on both sides of the spine in randomised order. The ensuing plasma protein extravasation was determined at 60 min by extraction of Evans blue (see above) from the dorsal skin.
Oxytocin was dissolved and diluted in DMSO for all experiments involving s. c. injection in volumes of 1.0 ml/kg. All pretreatments were given 1 h prior to the induction of the respective model of inflammation. All animal experiments approved of by Karolinska institutets animal committe.
Oxytocin was a gift from Poly Peptides Copenhagen, Denmark and was dissolved in phosphate-buffered saline (composition in mmol/l: NaCl 136.9, KCl 2.7, KH2PO4 1.5, Na2HPO4 7.7). Cyclophosphamide monohydrate and collagenase from Clostridium histolyticum (type II, clostridiopeptidase A, EC 3.4.24.3) were obtained from Sigma and were dissolved in 154 mmol/l NaCl.

allergic rhinitis = experiment: allergic rhinitis, sneezing and nasal rubbing after antigen challenge in sensitised rats; assay type: in vivo, rat; conditions: % as compared to untreated; topical 10 μl/each nostril 1 h before antigen challenge; counted 30 min
Method: Six-week-old male Wistar rats were housed in an air-conditioned room maintained at about 25° C. with humidity of about 50%. Rats were given a standard laboratory rodent chow and water ad libitum.
Rats were generally sensitised by injection of 0.6 ml physiological saline containing egg albumin (1 mg), alum (2 mg) and […] killed Bordetella pertussis into the four footpads on the first day. Five days later they were boosted by subcutaneous injection of 1 ml of physiological saline containing egg albumin (0.5 mg) in 10 sites on the back. Then, local sensitisation was performed every day for about one week from day 14 by dripping the egg albumin dissolved in physiological saline (1 mg/ml, 10 μl) into the bilateral nasal cavities using a micropipette.
After dripping 10 μl of egg albumin dissolved in physiological saline solution (1 mg/ml) into the bilateral nasal cavities, the numbers of nasal rubbing and sneezing were counted for 30 min and was set to 100%.
In this study, the rats were used following intranasal sensitisation (from day 21 to day 23 after the first sensitisation). On the last day, drugs (saline or oxytocin) were given topically (10 μl/each nostril) 1 h before topical antigen challenge. […] Also saline caused a minor decrease.

TNF-alpha = TNF-alpha in BALF in SDX-induced eosinophilic airway inflammation; assay type: in vivo, rat; conditions: 1 mg/ml s.c.
Method: 12 male Wistar rats aged 11-12 weeks, with an average weight of 323 g, were used in the study. The animals (n=3 in each group) were evaluated at 3 h and 24 h after induced inflammation. These were compared with control animals (n=3 in each group) examined at the same time points. An eosinophilic airway inflammation was induced by intratracheal instillation of SDX particles (G-200 Superfine, Pharmacia & Upjohn, Uppsala, Sweden) dissolved in phosphate-buffered saline (PBS) as previously described (Andersson S E, Zackrisson C, Hemsen A, Lundberg J M. Regulation of lung endothelin content by the glucocorticosteroid budesonide. Biochem Biophys Res Commun 1992, 188:1116-1121) and compared with that in control animals receiving a similar volume of PBS intratracheally. BAL was performed by instillation of 3+2+2 ml of PBS in the right stem bronchus distal to the upper lobe, and the procedure was repeated in the main bronchus on the left side. Immediately after the BAL procedure, the lungs were removed and frozen in liquid nitrogen for tissue analyses 3 h and 24 h after SDX instillation (n=3 animals at each time point) and 3 h and 24 after intratracheal instillation of saline into control animals (n=3). Oxytocin 1 mg/ml was given s.c.
TNF-alpha was measured with a rat-specific sandwich enzyme-linked immunosorbent assay (ELISA; Factor-Test-X, Genzyme, Cambridge, Mass.). […]

[3] = test system: ischaemic musculocutaneous skin flaps; conditions: previously shown by the inventors, cited from earlier work

## Oxytocin
[1]
  nociceptive threshold, response to mechanical stimulation: increase in withdrawal latency
lipase
  active lipase in the pancreatic tissue: 1.34±0.29 U/mg
[2]; 1 ug/ml oxytocin, 10 and 30 mg collagenase
  effect on collagenase-induced plasma protein extravasation: no effect
[2]; s.c. pre-treatment 1 mg/ml, 10 mg collagenase, without oxytocin 3.5±1.0
  cutaneous plasma protein extravasation, Evans blue accumulation: 2.2 ± 0.9 mg
[2]; s.c. pre-treatment 1 mg/ml, higher doses of the enzyme
  effect on collagenase-induced plasma protein extravasation: attenuated the effect
Allergic rhinitis
  Nasal rubbing: 42%
  Sneezing: 52%
TNF-alpha; 3 h after SDX provocation
  TNF-alpha concentration in BALF: effectively inhibited the increase
TNF-alpha; 24 h after SDX provocation
  TNF-alpha level relative to animals not receiving oxytocin: 32%
[3]; 1 μg/kg i.c.v.
  survival of ischaemic musculocutaneous skin flaps: increases the survival
[3]; 1 mg/kg s.c.
  survival of ischaemic musculocutaneous skin flaps: induced the same effect
